*1 amine or outer side, *2 acyl side, *3 side chain or, on linkers, in order; H or OH if unused. Where a SMILES comes first, the peptide text is derived from it. Bridges are numbered along the chain shown (N, C = ends). Roman numbers before positions name the chains, in order. [ ]: non-standard residue; d: D form. Actinocin(9to1) = Cc1c2oc3c(C)ccc(C(=O)[*:1])c3nc-2c(C(=O)[*:2])c(N)c1=O; NMeV = CN[C@H](C(=O)O)C(C)C; Sar = CNCC(=O)O

Data set [1] relates to P388 lymphocytic leukemia. Put plainly: In vivo antitumor activity against P388 leukemia. Conditions: for surv (surviving mice/total mice at 60 days) / % ILS / MST (range): P388, at optimal dose; for % ILS: 100(T/C - 1); for MST (range): control 11.0 (9-12); for optimal dose: P388, ip, days 1, 5 and 9, optimal nontoxic dose. Details: species or system BDF1 mice. The protocol: The analogues were tested for their antitumor activities in P388 lymphocytic leukemia in male BDF1 mice. The tumor was implanted intraperitoneally (ip) with 10^6 cells. The drugs were also administered ip once daily on days 1, 5 and 9, beginning 1 day after tumor transplantation. Analogues were tested over a range of doses, but only the optimal nontoxic doses are listed.
^a 10^6 P388 cells implanted ip on day 0 into groups of eight
BDF1 male mice. Drugs administered ip. MST (range), median survival
time in days (range of individual animal deaths); % ILS, percent increase
in life span, calculated 100(T/C - 1), where T and C are median survival
times of treated and control animals; surv, number of surviving mice/tota

Data set [2] deals with CCRF-CEM human lymphoblastic leukemic cells. Put plainly: In vitro cytotoxicity against CCRF-CEM cells. It counts as cell-based. Conditions: 48 hr. The protocol:
^a Human lymphoblastic leukemic cells.
The analogues were tested for their cytotoxicity against tumor cells (time, 48 hr). […] This may be associated with the initial microsomal transformation of the "reverse" analogues to "symmetrical" analogue and/or other alternate bioactive forms (e.g., free-radicals, O2^-), followed by deactivation via formation of conjugates and facile elimination of these from the host. The "reverse" analogues show reduced toxicity in vivo and also the tritiated "reverse" 7a is metabolized in vitro.

Data set [3] concerns DNA. Briefly: Thermal denaturation of DNA (ΔTm). It counts as binding. The protocol:
The "reverse" analogues bind to calf-thymus DNA, but the spectrophotometrically determined binding (Kapp and Bapp, equilibrium binding values) constants are found to be lower than those of AMD. The binding is also measured by thermal denaturation of DNA.
The equilibrium binding constants (Kapp and Bapp) of the "reverse" methyl 7a and the "reverse" phenyl 8a were determined from the Scatchard plots of binding isotherms; the Scatchard plots are produced according to the previously described methods using calf-thymus DNA [Sengupta et al, Biochem. Biophys. Acta 521, 89 (1978)]. The Kapp values are 2.5×10^6 and 2.3×10^6 M^-1, respectively; corresponding Bapp values are 0.038 and 0.036. […] But, these "reverse" analogues associate with DNA less strongly; their frequency of binding is also lower compared to that of AMD. However, the "reverse" analogues fail to cause any measurable change in the ratio of the intrinsic viscosity (γ) of DNA with the increasing ratios of [ligand]/DNA base pair (r), even when low molecular weight DNAs (0.5×10^5 to 1.0×10^5) were employed.
Melting points are determined on a Thomas-Hoover melting point apparatus at a heating rate of 2° C./min. Thin-layer chromatography was performed on silica gel plates (Brinkmann Instrument Inc.). Solvent systems were (A) EtOAc-acetone (4:1), (B) CHCl3 -MeOH (9:1) and (C) Cifferri, the organic phase of the mixture EtOAc-MeOH-H2 O (20:1:20). High-performance liquid chromatography was carried out on a Varian Model 5020 gradient liquid chromatograph equipped with a CD-111L chromatography data system and fitted with a Varian reversed-phase C18 column with the following solvent systems: I, CH3 CN-5 mM NH4 OAc buffer, pH 6.4 (68:32 isocratic), flow rate 1.5 mL/min; II, 65-95% water-methanol gradient for 70 min, 1 mL/min; III, 10-90% H2 O-MeOH gradient for 120 min, 1 mL/min, with UV-visible variable- and fixed-wavelength dual detectors at 254, 440, 470 and 520 nm. IR spectra were obtained on a Perkin-Elmer Model 237 Infra Cord with KBr micropellets or in chloroform solutions. UV-visible spectra were obtained on a Gilford 250 spectrophorometer, which, with the addition of a base-line reference compensator (Analog Multiplexer 5053) and thermoprogrammer, auto four cell programmer and thermoelectric cell holder 2577, were used to obtain thermal denaturation curves. Specific rotation values were determined in chloroform solutions with a Cary 60 spectropolarimeter. NMR spectra were obtained in a JEOL FQ-90 MHz spectrometer equipped with Fourier transform. EPR spectra analyses were recorded in a Varian E-9 EPR spectrometer. All elemental analyses were within ±0.4%.

Data set [4] in a line: Metabolism of tritiated drugs by rat liver microsomes with NADPH-generating system. It counts as in vitro ADME. Conditions: for Percent isolated: unconverted: 37° C. The protocol:
A method of using tumor cell sonicates was developed to study the metabolism of the analogues of AMD. By use of sonicated cells, the dilution effects that would occur if flasks of cultured cells were used are avoided. Although the cells are disrupted by this method, their enzyme systems appear to remain active. Large numbers of tumor cells (P388 murine leukemia) were sonicated in Earle's balanced salt solution (EBSS) and were incubated with tritiated AMD and its analogues 7a and 9a (Table II) for 16 hr. In another experiment, the analogues were treated with rat hepatic microsomes at 37° C. for 6 hr in the presence of a NADPH-generating system. The metabolic products were isolated and identified with the following results (Table II). […] In the microsomes, the major metabolites were in unconjugated forms; in the tumor cell homogenates, the major identified metabolites were glucuronide and sulfate conjugated forms. It should be pointed out that in these metabolic experiments, the identification of these glucuronide and/or sulfate conjugates was made only on the basis of the disappearance of the peaks from the HPLC chromatograms upon treatment with deconjugating enzymes glucarase.
The incubation mixture consisted of 500 μg of microsomal protein 1.6 mM NADP^+, 16 mM glucose 6-phosphate, 10.1 U of glucose-6-phosphate dehydrogenase, 12 mM MgCl2, 10 mM sodium phosphate-potassium phosphate (pH 7.4) and 0.4-0.8 mM of tritiated drugs (including AMD) in a final volume of 5.0 mL. The mixtures were incubated at 37° C. for 6 hr, after which the reaction was stopped by chilling at 0° C. The chilled mixtures were filtered by centrifugation in tubes containing centriflow membrane cones (Amicon, 1053, molecular weight cut-off 25000). The filtrates were adjusted to pH 5.0 before extraction with water-saturated ethyl acetate (step A).
Equal aliquots of the aqueous layer (step A) were treated either with equal volumes of glucarase (5 mg/mL) in 0.05M acetate buffer, pH 5.0, overnight at 37° C. under nitrogen in a shaking water bath or with buffer alone (step B). The aqueous fractions from step B were mixed with an extract of the Amicon cone-retained material. The metabolites at each step were separated by HPLC (Table II). For extraction of the high molecular weight protein conjugates and other tissue-associated materials, the cones were soaked in 0.1N NaOH solution overnight at 0° C. and were processed as in the preceding section before gel filtration. A Sephacryl S-200 superfine column, 1.0× 60 cm, was made in 6M guanidine hydrochloride, pH 5.0, and the lyophilized material in minimum water, pH 7.0, was added to the top of the column and eluted overnight with 6M guanidine hydrochloride, pH 5.0, at a flow rate of 2 cm/hr. A 2% solution of blue dextran 2000 (100 μL, Pharmacia) was added to the column for calibration. Fractions were collected, and the distribution of the material in the fractions was determined by liquid scintillation counting. […] For assay of metabolites, a Varian Moden 5020 gradient liquid chromatograph equipped with a CD-111L chromatography data system was used.

Consider `Cc1c2oc3c(C)c(O)c(N)c(C(=O)NC4C(=O)NC(C(C)C)C(=O)N5CCCC5C(=O)N(C)CC(=O)N(C)C(C(C)C)C(=O)OC4C)c3nc-2c(C(=O)NC2C(=O)NC(C(C)C)C(=O)N3CCCC3C(=O)N(C)CC(=O)N(C)C(C(C)C)C(=O)OC2C)c(N)c1=O` (stereo not drawn) [4a, 7-Hydroxy-8-amino-actinomycin D], for which, in data set [1], the “surv (surviving mice/total mice at 60 days)” value is 4/8, the “% ILS” value is given as 382%, the “MST (range)” value was 52.0 (48-55) days and the optimal dose was 600.0 μg/kg per inj. In addition, the “in vitro (CCRF-CEM) ID50” value in data set [2] was 30 nM. The “ΔTm (DNA melting temperature)” value in data set [3] was 7.9±0.2 °C.
Turning to `Cc1nc2c(C(=O)NC3C(=O)NC(C(C)C)C(=O)N4CCCC4C(=O)N(C)CC(=O)N(C)C(C(C)C)C(=O)OC3C)c3nc4c(C(=O)NC5C(=O)NC(C(C)C)C(=O)N6CCCC6C(=O)N(C)CC(=O)N(C)C(C(C)C)C(=O)OC5C)c(N)c(=O)c(C)c-4oc3c(C)c2o1` [7a, 7-Amino-2,9,11-trimethyl-8H-8-oxooxazolo [4,5-b]phenoxazine 4,6-bis[carbonyl-L-threonyl-D-valyl-L-prolylsarcosyl-L-N-methylvaline-(threonine hydroxyl)] lactone], in data set [1], the “surv (surviving mice/total mice at 60 days)” value is given as 3/8, the “% ILS” value came out at 277%, the “MST (range)” value is reported as 42.5 (39-43) days and the optimal dose was 450.0 μg/kg per inj. For the same compound, in data set [2], the “in vitro (CCRF-CEM) ID50” value was 110 nM. In addition, in data set [4] (rat liver microsomes (M), 6 hr), the “Percent isolated: "tissue" bound” value stood at 3.7%, the “Percent isolated: protein conjugates” value is recorded as 3.5%, the “Percent isolated: unidentified metabolite” value was found to be 8.5% and the “Percent metabolite isolated: 4a glucuronide and/or sulfate” value is reported as “nil”. In data set [4] (rat liver microsomes (M), 6 hr), the “Percent metabolite isolated: "symmetrical" AMD (4a)” value turned out to be 62.5% and the “Percent isolated: unconverted” value is recorded as 21%. Moreover, the “ΔTm (DNA melting temperature)” value in data set [3] was 5.5±0.3 °C.
On to `Cc1nc2c(C(=O)NC3C(=O)NC(C(C)C)C(=O)N4CCCC4C(=O)N(C)CC(=O)N(C)C(C(C)C)C(=O)OC3C)c3nc4c(C(=O)NC5C(=O)NC(C(C)C)C(=O)N6CCCC6C(=O)N(C)CC(=O)N(C)C(C(C)C)C(=O)OC5C)cc(=O)c(C)c-4oc3c(C)c2o1` (stereo not drawn) [9a], for which, in data set [1], the “surv (surviving mice/total mice at 60 days)” value was 0/0, the “% ILS” value stood at 164%, the “MST (range)” value is listed as 29.0 (19-58) days and the optimal dose came to 1200.0 μg/kg per inj. In data set [4] (rat liver microsomes (M), 6 hr), the “Percent isolated: "tissue" bound” value came out at 5.5%, the “Percent isolated: protein conjugates” value was determined as 9.5%, the “Percent isolated: unidentified metabolite” value worked out at 6% and the “Percent metabolite isolated: 2a glucuronide and/or sulfate” value is on record as “nil”. In addition, in data set [4] (rat liver microsomes (M), 6 hr), the “Percent metabolite isolated: 7-hydroxy-AMD (2a)” value came to 40.5% and the “Percent isolated: unconverted” value is 38.5%.
Take `Cc1c2oc3c(C)ccc(C(=O)N[C@@H]4C(=O)N[C@H](C(C)C)C(=O)N5CCC[C@H]5C(=O)N(C)CC(=O)N(C)[C@@H](C(C)C)C(=O)O[C@@H]4C)c3nc-2c(C(=O)N[C@@H]2C(=O)N[C@H](C(C)C)C(=O)N3CCC[C@H]3C(=O)N(C)CC(=O)N(C)[C@@H](C(C)C)C(=O)O[C@@H]2C)c(N)c1=O` [AMD, Actinomycin D] (I: T[dV]P[Sar][NMeV] / II: T[dV]P[Sar][NMeV]; ester I:1-I:C, II:1-II:C; linker I:N-II:N via Actinocin(9to1)): in data set [1], the “surv (surviving mice/total mice at 60 days)” value is listed as 1/8, the “% ILS” value turned out to be 136%, the “MST (range)” value was 26.0 (16-37) days and the optimal dose is on record as 300.0 μg/kg per inj. For the same compound, the “in vitro (CCRF-CEM) ID50” value in data set [2] was determined as 50 nM. Further, the “Percent isolated: unconverted” value in data set [4] (rat liver microsomes (M), 6 hr) worked out at 100%. In addition, the “formation of metabolite or conjugate” value in data set [4] (tumor cell homogenate and rat liver microsomes) is reported as “did not form any detectable metabolite or conjugate”. In data set [3], the “ΔTm (DNA melting temperature)” value worked out at 7.1±0.15 °C.

The record behind these values is US4680382A, “Analogues of actinomycin D” (priority 1986, dated 1987).
